Data taken from PubChem BioAssay (NCI).
Values joined by “and” are separate entries in the source; they are usually repeats but may differ in a detail not shown here. Equal values may be shown once.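 Step 1: Grow cells in 96-well plates. Step 2: Expose to compound for 48 hours at 5 concentrations. Step 3: Interpolate endpoints linearly; if unreached, use highest concentration. The concentration for 50% growth inhibition is given as GI50. TGI: concentration producing complete growth inhibition.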

Legend:
Assay in all cases: NCI anticancer screen, dose series, 48 h
HCT-116 colon = test system: HCT-116 colon
SNB-75 CNS = test system: SNB-75 CNS
ACHN renal = test system: ACHN renal
UO-31 renal = test system: UO-31 renal
MALME-3M melanoma = test system: MALME-3M melanoma
DU-145 prostate = test system: DU-145 prostate
HOP-92 NSCLC = test system: HOP-92 NSCLC
MDA-MB-435 = test system: MDA-MB-435
A498 renal = test system: A498 renal
CAKI-1 renal = test system: CAKI-1 renal
OVCAR-5 ovarian = test system: OVCAR-5 ovarian
HCT-15 colon = test system: HCT-15 colon
UACC-257 melanoma = test system: UACC-257 melanoma
SW-620 colon = test system: SW-620 colon
SK-MEL-28 melanoma = test system: SK-MEL-28 melanoma
BT-549 breast = test system: BT-549 breast
OVCAR-3 ovarian = test system: OVCAR-3 ovarian
T-47D breast = test system: T-47D breast
OVCAR-8 ovarian = test system: OVCAR-8 ovarian
SF-539 CNS = test system: SF-539 CNS
NCI-H460 lung = test system: NCI-H460 lung
SN12C renal = test system: SN12C renal
786-0 renal = test system: 786-0 renal
HT29 colon = test system: HT29 colon
SF-295 CNS = test system: SF-295 CNS
U251 CNS = test system: U251 CNS
COLO 205 colon = test system: COLO 205 colon
SK-MEL-5 melanoma = test system: SK-MEL-5 melanoma
NCI-H226 lung = test system: NCI-H226 lung
M14 melanoma = test system: M14 melanoma
SK-OV-3 ovarian = test system: SK-OV-3 ovarian
OVCAR-4 ovarian = test system: OVCAR-4 ovarian
K-562 leukemia = test system: K-562 leukemia
RPMI-8226 leukemia = test system: RPMI-8226 leukemia
UACC-62 melanoma = test system: UACC-62 melanoma
MCF7 breast = test system: MCF7 breast
NCI-H522 lung = test system: NCI-H522 lung
NCI-H23 lung = test system: NCI-H23 lung
SNB-19 CNS = test system: SNB-19 CNS
SK-MEL-2 melanoma = test system: SK-MEL-2 melanoma
LOX IMVI melanoma = test system: LOX IMVI melanoma
EKVX NSCLC = test system: EKVX NSCLC
RXF 393 renal = test system: RXF 393 renal
HS 578T breast = test system: HS 578T breast
HCC-2998 colon = test system: HCC-2998 colon
KM12 colon = test system: KM12 colon
PC-3 prostate = test system: PC-3 prostate

CN1/C(=C/C=C/c2n(Cc3ccc4ccccc4c3)c(Cl)c(Cl)[n+]2Cc2ccc3ccccc3c2)Oc2ccccc21
GI50 (HCT-116 colon): 255 nM
TGI (HCT-116 colon): 1080 nM
GI50 (SNB-75 CNS): 176 nM
TGI (SNB-75 CNS): 731 nM
GI50 (ACHN renal): 494 nM
TGI (ACHN renal): 1670 nM
GI50 (UO-31 renal): 1350 nM
TGI (UO-31 renal): 2650 nM
GI50 (MALME-3M melanoma): 201 nM
TGI (MALME-3M melanoma): 625 nM
GI50 (DU-145 prostate): 403 nM
TGI (DU-145 prostate): 1540 nM
GI50 (HOP-92 NSCLC): 212 nM
TGI (HOP-92 NSCLC): 685 nM
GI50 (MDA-MB-435): 327 nM
TGI (MDA-MB-435): 1090 nM
GI50 (A498 renal): 198 nM
TGI (A498 renal): 756 nM
GI50 (CAKI-1 renal): 553 nM
TGI (CAKI-1 renal): 1830 nM
GI50 (OVCAR-5 ovarian): 373 nM
TGI (OVCAR-5 ovarian): 1590 nM
GI50 (HCT-15 colon): 1240 nM
TGI (HCT-15 colon): 2680 nM
GI50 (UACC-257 melanoma): 338 nM
TGI (UACC-257 melanoma): 1440 nM
GI50 (SW-620 colon): 294 nM
TGI (SW-620 colon): 1150 nM
GI50 (SK-MEL-28 melanoma): 505 nM
TGI (SK-MEL-28 melanoma): 1750 nM

Cc1nccn1CC1CCc2c(c3ccccc3n2C)C1=O (configuration not stated)
GI50 (HCT-116 colon): 65600 nM
GI50 (SNB-75 CNS): 56500 nM
GI50 (BT-549 breast): 77300 nM
GI50 (OVCAR-3 ovarian): 90300 nM
GI50 (T-47D breast): 71100 nM
GI50 (OVCAR-8 ovarian): 49800 nM
GI50 (SF-539 CNS): 73700 nM
GI50 (NCI-H460 lung): 45700 nM
TGI (NCI-H460 lung): 68100 nM
GI50 (UO-31 renal): 78500 nM
GI50 (SN12C renal): 87900 nM
GI50 (MDA-MB-435): 90200 nM
GI50 (786-0 renal): 78800 nM
GI50 (HT29 colon): 27900 nM
TGI (HT29 colon): 49200 nM
GI50 (SF-295 CNS): 39100 nM
TGI (SF-295 CNS): 60900 nM
GI50 (U251 CNS): 81000 nM
GI50 (COLO 205 colon): 78700 nM
GI50 (OVCAR-5 ovarian): 95300 nM
GI50 (SK-MEL-5 melanoma): 66800 nM
GI50 (UACC-257 melanoma): 42300 nM
TGI (UACC-257 melanoma): 64300 nM

COc1cccc(/C=C/C(=O)N2CC(CCl)c3c2cc(N)c2ccccc32)c1 (configuration not stated)
TGI (HCT-116 colon): 1270 nM
TGI (SNB-75 CNS): 15.3 nM
GI50 (BT-549 breast): 14.2 nM
TGI (NCI-H226 lung): 42.5 nM
TGI (M14 melanoma): 105 nM
TGI (OVCAR-3 ovarian): 1720 nM
TGI (SK-OV-3 ovarian): 1160 nM
TGI (T-47D breast): 3590 nM
TGI (OVCAR-4 ovarian): 141 nM
TGI (K-562 leukemia): > 100000 nM
TGI (RPMI-8226 leukemia): > 100000 nM
TGI (UACC-62 melanoma): 22.4 nM
TGI (ACHN renal): 2.4 nM
TGI (NCI-H460 lung): 3.25 nM
TGI (UO-31 renal): > 100000 nM
TGI (MCF7 breast): 5.68 nM
TGI (NCI-H522 lung): 8.89 nM
TGI (NCI-H23 lung): 12.4 nM
TGI (SNB-19 CNS): > 100000 nM
TGI (HT29 colon): 20000 nM
TGI (SF-295 CNS): 9.53 nM
TGI (U251 CNS): 370 nM
TGI (A498 renal): 34.2 nM
TGI (SK-MEL-2 melanoma): 22.4 nM
TGI (OVCAR-5 ovarian): 1500 nM
TGI (LOX IMVI melanoma): 6.5 nM
TGI (EKVX NSCLC): 145 nM and 41.5 nM
TGI (RXF 393 renal): 3.42 nM
TGI (HS 578T breast): 40.9 nM
TGI (HCT-15 colon): 224 nM
TGI (HCC-2998 colon): 16.6 nM
TGI (KM12 colon): 35.2 nM and 161 nM
TGI (SW-620 colon): > 100000 nM
TGI (PC-3 prostate): 56.2 nM and 132 nM
